Results from patent publication US6713506B2, “Tea polyphenol esters and analogs thereof for cancer prevention and treatment” (University of South Florida, priority 2000, dated 2004).
“Also recorded” adds a separate entry of the source.

How the values were obtained:
[1] = target: T1, proteasomal chymotrypsin-like activity in Jurkat T cell extract (Homo sapiens, UniProt P28074); experiment: Proteasome chymotrypsin-like activity in Jurkat T cell free extract; type: biochemical
T1 construct: endogenous in cells; host or cells: Jurkat T cells (whole cell extract or intact cells)
Description: FIG. 9. Inhibition of the proteasome activity by tannic acid using a cell free extract. A). The whole cell extract (6.0 μg) from Jurkat T cells is incubated for 90 min at 37° C. with 20 μM of a fluorogenic peptide substrate, Suc-Leu-Leu-Val-Tyr-AMC for the chymotrypsin-like activity, Z-Leu-Leu-Glu-AMC for peptidyl-glutamyl peptide-hydrolyzing (PGPH) activity, and Z-Gly-Gly-Arg-AMC for the trypsin-like activity, in 100 μl of the assay buffer with (filled bars) or without (empty bars) 1 μg/ml of tannic acid. The hydrolyzed AMCs are quantified as described in FIG. 2. B). […] Experiment is performed as described in FIG. 9A.
Inhibition of the proteasome activity with cell free extracts by tea polyphenols—The whole cell extract (3.5 μg) from Jurkat T cells is incubated for 90 min at 37° C. with 20 μM of a fluorogenic peptide substrate, Suc-Leu-Leu-Val-Tyr-AMC (for the chymotrypsin-like activity), Z-Leu-Leu-Glu-AMC [peptidyl-glutamyl peptide-hydrolyzing (PGPH) activity; Calbiochem], and Z-Gly-Gly-Arg-AMC (for the trypsin-like activity; Bachem), in 100 μl of the assay buffer with or without 10 μM EGCG or EGC. The hydrolyzed AMCs are quantified as described above.

[2] = target: T2, proteasome chymotrypsin-like activity in living Jurkat cells (Homo sapiens, UniProt P28074); experiment: Proteasome chymotrypsin-like activity in living Jurkat T cells; type: cell-based
T2 construct: endogenous in cells; host or cells: Jurkat T cells (whole cell extract or intact cells)
Description: FIG. 10. Inhibition of the chymotrypsin-like activity by tannic acid in intact Jurkat T cells. Intact Jurkat T cells (1×10^5 cells/ml/well) are cultured in 24-well plates. These cells are first incubated for 12 h with various concentrations of tannic acid as indicated, followed by an additional 2 h-incubation with a fluorogenic peptide substrate, Suc-Leu-Leu-Val-Tyr-AMC for the chymotrypsin-like activity. Then, cell medium (200 μl per sample) is collected and used for measurement of free AMCs.
(§1) Inhibition of the proteasome activity in living cells by tea polyphenols—To measure inhibition of the chymotrypsin-like activity in living tumor cells, Jurkat T (1×10^5 cells/ml/well), MCF7 or PC-3 cells (1×10^4 cells/ml/well) are cultured in 24-well plates. These cells are first incubated for 12 h with various concentrations of EGCG, EGC, β-lactone or LLnL, followed by an additional 2 h-incubation with fluorogenic peptide substrates, Suc-Leu-Leu-Val-Tyr-AMC for the chymotrypsin-like activity and Z-Gly-Gly-Arg-AMC for the trypsin-like activity. After that, cell medium (200 μl per sample) is collected and used for measurement of free AMCs.

[3] = system: Jurkat T cells; experiment: Cell cycle analysis by flow cytometry, Jurkat T cells; type: cell-based, human
Description: FIG. 6. Cell cycle analysis. Asynchronous Jurkat, LNCaP, WI-38, and VA-13 cells are treated with 10 μM EGCG and harvested at the time points indicated. Cells are prepared and analyzed by flow cytometry as described in the The Materials and Methods section of Example 1. Growth arrest is determined by the increase in the percentage of G1 population.
FIG. 12. […] Jurkat T cells are treated with either 50 μg/ml of tannic acid or buffer (−) for up to 48 h. The harvested cells are fixed, resuspended in 1 ml of PBS containing 50 μg/ml of propidium iodide (PI), 100 U/ml of RNase A, and 1 mg/ml of glucose, and analyzed by flow cytometry. Percentages of cells containing G1 S, G2 and M DNA content are indicated. Percentages of the apoptotic cell population containing sub-G1 DNA content is also indicated. Note: tannic acid treatment results in ˜23% increase in G1 and ˜14% increase in apoptotic cell populations.
Cell cycle analysis—Cell cycle analysis based on DNA content is performed as follows. Cells are harvested, counted and washed twice with PBS. Cells (5×10^6 ) are then suspended in 0.5 ml PBS, pipetted and fixed in 5 ml of 70% ethanol for at least 2 h at −20° C. Cells are centrifuged, resuspended in 1 ml of propidium iodide staining solution (50 μg propidium iodide, 100 units RNase A and 1 mg glucose per ml PBS) and incubated at room temperature for 30 min. The cells are then analyzed with FACScan (Becton Dickinson Immunocytometry, CA.), ModFit LT and WinMDI V.2.8 cell cycle analysis software (Verity Software, Topsham, Me.). The cell cycle distribution is shown as the percentage of cells containing G1, S, G2, and M DNA judged by propidium iodide staining.

[4] = target: chymotrypsin-like activity of purified 20S proteasome (UniProt Q9P992); type: biochemical
Description: FIG. 8. […] A). […] Initially, 0.5 μg of purified 20S proteasome is incubated with 20 μM of a fluorogenic peptide substrate, Suc-Leu-Leu-Val-Tyr-AMC, for 30 min at 37° C. in 100 μl of assay buffer (20 mM Tris-HCl, pH 8.0) with various concentrations of tannic acid. After incubation, the reaction mixture is diluted to 200 μl with the assay buffer, followed by measurement of the hydrolyzed 7-amido-4-methyl-coumarin (AMC) groups using a fluorometer with an excitation filter of 380 nm and an emission filter of 460 nm. B). […] Tannic acid (0.3 μg/ml) and Glucose (180 μg/ml) are used in the proteasome activity assay as described above. C). […] Purified calpain I (3 μg) protein is incubated with 40 μM of a fluorogenic peptide substrate, Suc-Leu-Tyr-AMC, for 30 min at 37° C. in 100 μl of assay buffer (50 mM Tris-HCl, pH 7.5, containing 50 mM NaCl, 1 mM EDTA, 1 mM EGTA, 5 mM β-Mercaptoethanol, 5 mM CaCl2, and 0.1% CHAPS) in the absence (control) or presence of 5 μg/ml of tannic acid or 0.18 μg/ml of calpeptin (calpain inhibitor).
Inhibition of the proteasome activity in vitro by tea polyphenols—To measure the 20S proteasome chymotrypsin-like activity, 0.5 μg of a purified 20S proteasome (Calbiochem) is incubated with 20 μM of a fluorogenic peptide substrate, Suc-Leu-Leu-Val-Tyr-AMC (Calbiochem), for 30 min at 37° C. in 100 μl of assay buffer (20 mM Tris-HCl, pH 8.0), with or without tea polyphenols (purity >95%; Sigma) or tea extract. After incubation, the reaction mixture is diluted to 200 μl with the assay buffer, followed by measurement of the hydrolyzed 7-amido-4-methyl-coumarin (AMC) groups using a VersaFluor™ Fluorometer with an excitation filter of 380 nm and an emission filter of 460 nm (Bio-Rad).

[5] = target: T3, trypsin-like activity in living Jurkat T cells (Homo sapiens, UniProt Q99436); experiment: Proteasome trypsin-like activity in living Jurkat T cells; type: cell-based
T3 construct: endogenous in cells; host or cells: Jurkat T cells (whole cell extract or intact cells)
Description: as §1

[6] = tannic acid 50 μg/ml, up to 48 h

chymotrypsin-like activity of purified 20S proteasome, sequence (Q9P992 whole entry): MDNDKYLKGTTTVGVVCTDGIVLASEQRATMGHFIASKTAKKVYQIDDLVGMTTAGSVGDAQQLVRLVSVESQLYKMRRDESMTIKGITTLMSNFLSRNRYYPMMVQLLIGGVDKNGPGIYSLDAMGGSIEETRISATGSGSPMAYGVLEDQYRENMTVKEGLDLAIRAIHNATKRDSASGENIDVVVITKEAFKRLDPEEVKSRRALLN

Q: For O=C(OC[C@H]1O[C@@H](OC(=O)c2cc(O)c(O)c(OC(=O)c3cc(O)c(O)c(O)c3)c2)[C@H](OC(=O)c2cc(O)c(O)c(OC(=O)c3cc(O)c(O)c(O)c3)c2)[C@@H](OC(=O)c2cc(O)c(O)c(OC(=O)c3cc(O)c(O)c(O)c3)c2)[C@@H]1OC(=O)c1cc(O)c(O)c(OC(=O)c2cc(O)c(O)c(O)c2)c1)c1cc(O)c(O)c(OC(=O)c2cc(O)c(O)c(O)c2)c1 [tannic acid], which “inhibition of proteasomal chymotrypsin-like activity in Jurkat T cell extract (in words)” value (“inhibition … in Jurkat T cell extract (in words)” below) [1] is on record?
A: Dose-dependent inhibition; also recorded: inhibited by tannic acid in a dose-dependent manner

Q: What about the “inhibition of chymotrypsin-like activity in living/intact Jurkat cells (in words)” value [2] of the same compound?
A: inhibition

Q: And the “G1 arrest and apoptosis (in words)” value ([3]; tannic acid)?
A: induces G1 arrest and apoptosis

Q: What about the “increase in G1 cell population” value [3, 6] of the same compound?
A: ~23%

Q: What about the “increase in apoptotic cell population (sub-G1)” value [3, 6] of the same compound?
A: ~14%

Q: What about the “inhibition of purified 20S proteasome chymotrypsin-like activity (in words)” value [4] of the same compound?
A: concentration-dependent; also recorded: inhibited

Q: What about the “inhibition of chymotrypsin-like activity of the proteasome (in words)” value ([4]; tannic acid 0.3 μg/ml, glucose 180 μg/ml) of the same compound?
A: inhibited

Q: With O=C(O[C@@H]1Cc2c(O)cc(O)cc2O[C@@H]1c1cc(O)c(O)c(O)c1)c1cc(O)c(O)c(O)c1 [EGCG, (−)-epigallocatechin-3-gallate] as the compound, how does the “inhibition … in Jurkat T cell extract (in words)” value [1] read?
A: most potent proteasome inhibitor among all the tested polyphenols

Q: What about the “inhibition of proteasomal chymotrypsin-like activity” value ([1]; 10 μM, Jurkat T cell extract) of the same compound?
A: ~70%

Q: And the “inhibition of chymotrypsin-like activity in living/intact Jurkat cells (in words)” value [2]?
A: inhibitable

Q: What about the “inhibition of chymotrypsin-like activity” value ([2]; 10 μM, living Jurkat cells) of the same compound?
A: 24%

Q: And the IC50 ([2]; 12 h preincubation)?
A: 18 µM

Q: What about the “increase in G1 population” value ([3]; 10 μM, 24 h) of the same compound?
A: 10%

Q: What about the IC50 ([4]; read-out: IC50 towards the chymotrypsin-like activity of purified 20S proteasome) of the same compound?
A: 0.086 µM

Q: And the “inhibition of trypsin-like activity in living Jurkat T cells (in words)” value [5]?
A: does not significantly inhibit

Q: Which “inhibition … in Jurkat T cell extract (in words)” value [1] does the source give for Oc1cc(O)c2c(c1)O[C@H](c1cc(O)c(O)c(O)c1)[C@H](O)C2 [EGC, (−)-epigallocatechin] here?
A: little effect

Q: And the “inhibition of chymotrypsin-like activity in living/intact Jurkat cells (in words)” value [2]?
A: much less effect

Q: And the “fold less potent than EGCG” value ([4]; ratio of IC50 to EGCG)?
A: 14,000 fold
